Source: patent US20130217664A1, “NOVEL COMPOUNDS USEFUL FOR THE TREATMENT OF DEGENERATIVE AND INFLAMMATORY DISEASES” (priority 2012, published 2013)

Legend:
human JAK1 = molecular target: T1, human JAK1 (Homo sapiens, UniProt P23458); test: JAK1 inhibition assay (polyGT substrate / Ulight-JAK1 peptide); format: biochemical; details: recombinant human JAK1 catalytic domain; polyGT or Ulight-JAK1 peptide assay
T1 construct: catalytic domain, amino acids 866-1154; catalog number PV4774; purchased Invitrogen PV4774
T1 sequence (P23458 866-1154): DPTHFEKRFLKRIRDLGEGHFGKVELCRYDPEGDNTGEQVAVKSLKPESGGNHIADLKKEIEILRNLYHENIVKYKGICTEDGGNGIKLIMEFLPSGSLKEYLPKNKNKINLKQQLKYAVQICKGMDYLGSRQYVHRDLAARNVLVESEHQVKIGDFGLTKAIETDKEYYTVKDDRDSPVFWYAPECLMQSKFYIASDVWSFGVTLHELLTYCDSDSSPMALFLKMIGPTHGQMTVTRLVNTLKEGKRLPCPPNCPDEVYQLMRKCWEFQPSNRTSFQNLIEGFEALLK
How it was run: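 Two formats. PolyGT radiometric: 45 min at 30 °C, stopped with phosphoric acid, counted as cpm. Ulight-JAK1 peptide: 60 min at room temperature, stopped with Eu-anti-phosphotyrosine/EDTA, read as RFU. Percent inhibition normalised to vehicle and 10 μM staurosporine.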

BA/F3 cell line = test: BA/F3 viability assay; details: Mus musculus, BaF3, 48 h, read-out: BA/F3 IC50
CTLL-2 cell line = test: CTLL2 viability assay; format: cell-based; details: Mus musculus, IL-2 dependent CTLL2 viability, 24 h, ATP-lite
Source text: The protocol describes the methods to analyse the activity of compounds on their ability to sustain the IL2-dependent viability of CTLL2.
Final DMSO concentration was 0.1%.

[1] = system: pSTAT1(2)-luciferase reporter in HeLa cells triggered with human OSM; test: JAK-STAT signalling assay; format: cell-based; details: Homo sapiens, HeLa, HeLa cells, pSTAT1(2)-luciferase reporter, human OSM 33 ng/mL; read-out: JAK-STAT IC50
How it was run: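 HeLa cells transiently co-transfected with pSTAT1(2)-luciferase and LacZ control reporter, preincubated with compound 60 min, then stimulated with human OSM (33 ng/mL final) overnight at 37 °C. Luciferase read by luminescence; percent inhibition from vehicle and no-trigger controls, EC50 from dose-response.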

human JAK3 = molecular target: T2, human JAK3 (Homo sapiens, UniProt P52333); test: JAK3 inhibition assay; format: biochemical; details: recombinant human JAK3 catalytic domain; polyGT substrate
T2 construct: catalytic domain (amino acids 781-1124; catalog number PV3855); purchased Invitrogen PV3855
T2 sequence (P52333 781-1124): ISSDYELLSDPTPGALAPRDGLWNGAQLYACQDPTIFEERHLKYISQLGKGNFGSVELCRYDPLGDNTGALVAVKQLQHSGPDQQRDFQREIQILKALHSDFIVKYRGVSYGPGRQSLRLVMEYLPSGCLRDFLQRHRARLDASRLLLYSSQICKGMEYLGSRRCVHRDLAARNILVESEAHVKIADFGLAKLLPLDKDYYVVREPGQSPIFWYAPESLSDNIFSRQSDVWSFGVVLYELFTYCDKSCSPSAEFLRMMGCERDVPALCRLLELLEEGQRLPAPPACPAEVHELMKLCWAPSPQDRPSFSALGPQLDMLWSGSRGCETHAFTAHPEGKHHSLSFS
How it was run: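 Radiometric kinase assay: 0.5 ng JAK3 with 2.5 μg polyGT in Tris pH 7.5/MgCl2 buffer, 1 μM ATP plus 0.25 μCi 33P-γ-ATP, 1% DMSO, 45 min at 30 °C, stopped with phosphoric acid.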

human TYK2 = molecular target: T3, human TYK2 (Homo sapiens, UniProt P29597); test: TYK2 inhibition assay; format: biochemical; details: recombinant human TYK2 catalytic domain, polyGT substrate
T3 construct: catalytic domain (amino acids 871-1187; catalog number 08-147); purchased Carna Biosciences 08-147
T3 sequence (P29597 871-1187): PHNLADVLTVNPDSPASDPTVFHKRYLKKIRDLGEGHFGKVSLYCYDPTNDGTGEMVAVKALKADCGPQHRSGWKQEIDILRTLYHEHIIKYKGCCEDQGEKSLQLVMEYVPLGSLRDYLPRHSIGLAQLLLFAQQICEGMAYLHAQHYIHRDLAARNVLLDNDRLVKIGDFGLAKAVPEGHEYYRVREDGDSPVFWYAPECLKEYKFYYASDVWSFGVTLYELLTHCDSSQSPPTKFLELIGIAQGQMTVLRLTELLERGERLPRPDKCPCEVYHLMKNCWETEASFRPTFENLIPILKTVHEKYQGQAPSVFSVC
How it was run: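 Radiometric kinase reaction run 90 min at 30 °C, stopped with phosphoric acid, washed and scintillation-counted.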

Structure (SMILES): CCc1cc(CNS(=O)(=O)C(C)C)ccc1N(C)c1cc2c(cn1)ncn2C [Compound 245, N-(3-ethyl-4-(methyl(1-methyl-1H-imidazo[4,5-c]pyridin-6-yl)amino)benzyl)propane-2-sulfonamide]
- IC50 (human JAK1): 0.01 to 100 nM
- IC50 (BA/F3 cell line): 1000 to 5000 nM
- IC50 (CTLL-2 cell line): > 1000 nM
- IC50 [1]: 501 to 1000 nM
- IC50 (human JAK3): 101 to 500 nM
- IC50 (human TYK2): 101 to 500 nM
